For 8 compounds, pest or weed control results are on record in patent US20230017045A1, “PYRIDINE AND PYRIMIDINE CARBOXYLATE HERBICIDES AND METHODS OF USE THEREOF” (Dow AgroSciences LLC, priority 2017, published 2023).

The experiment has as its system test plant species. As to the kind of experiment: Post-emergent herbicidal activity test (greenhouse, foliar spray, visual growth reduction). The format is in vivo. The following applies: post-emergence, 336 h, 140 g ai/ha, 14 days after application. The procedure, abridged: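 Seedlings were raised 7-21 d in a greenhouse under a 15 h photoperiod until the first or second true leaf. Each compound, dissolved in acetone:DMSO 97:3 and diluted into a surfactant-containing spray mixture, was then applied at 187 L/ha. Plants were subirrigated, and growth reduction was scored visually at 14 d.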

Where [1] appears, read: ALOMY: blackgrass (Alopecurus myosuroides), read-out: Visual Growth Reduction (%) 14 Days After Application, ALOMY.
Where [2] appears, read: AMARE: redroot pigweed (Amaranthus retroflexus), read-out: Visual Growth Reduction (%) 14 Days After Application, AMARE.
Where [3] appears, read: AVEFA: wild oat (Avena fatua), read-out: Visual Growth Reduction (%) 14 Days After Application, AVEFA.
[4] abbreviates: CHEAL: lambsquarters (Chenopodium album), read-out: Visual Growth Reduction (%) 14 Days After Application, CHEAL.
[5] abbreviates: CIRAR: canada thistle (Cirsium arvense), read-out: Visual Growth Reduction (%) 14 Days After Application, CIRAR.
Setting [6] is: CYPES: yellow nutsedge (Cyperus esculentus), read-out: Visual Growth Reduction (%) 14 Days After Application, CYPES.
Where [7] appears, read: DIGSA: crabgrass (Digitaria sanguinalis), read-out: Visual Growth Reduction (%) 14 Days After Application, DIGSA.
[8] abbreviates: ECHCG: barnyardgrass (Echinochloa crus-galli), read-out: Visual Growth Reduction (%) 14 Days After Application, ECHCG.
Setting [9] is: IPOHE: ivy-leaf morning glory (Ipomoea hederacea), read-out: Visual Growth Reduction (%) 14 Days After Application, IPOHE.
Setting [10] is: KCHSC: kochia (Bassia scoparia), read-out: Visual Growth Reduction (%) 14 Days After Application, KCHSC.
Where [11] appears, read: ORYSA: rice (Oryza sativa), read-out: Visual Growth Reduction (%) 14 Days After Application, ORYSA.
Setting [12] is: SETFA: giant foxtail (Setaria faberi), read-out: Visual Growth Reduction (%) 14 Days After Application, SETFA.
The mark [13] stands for this setting: SORVU: grain sorghum (Sorghum vulgare), read-out: Visual Growth Reduction (%) 14 Days After Application, SORVU.
Where [14] appears, read: STEME: common chickweed (Stellaria media), read-out: Visual Growth Reduction (%) 14 Days After Application, STEME.
The mark [15] stands for this setting: TRZAS: wheat, spring (Triticum aestivum), read-out: Visual Growth Reduction (%) 14 Days After Application, TRZAS.

SMILES strings stand for the structures. Where two headings read alike, the source gives them in different places.

As to `COC(=O)c1nc(-c2c(Cl)cc(C(F)(F)F)cc2C#N)ccc1Cl` [F118, Methyl 3-chloro-6-(2-chloro-6-cyano-4-(trifluoromethyl)phenyl)picolinate], the pest or weed control at 140 g/ha is, setting by setting: under setting [1], 30 to 44%; under setting [2], 95 to 100%; under setting [3], 60 to 74%; under setting [4], 95 to 100%; under setting [5], 95 to 100%; under setting [6], 45 to 59%. Moreover, the pest or weed control at 140 g/ha runs as follows: under setting [7], 85 to 94%; under setting [8], 85 to 94%; under setting [9], 95 to 100%; under setting [10], 95 to 100%; under setting [11], 60 to 74%; under setting [12], 60 to 74%. Also, the pest or weed control at 140 g/ha reads like this: under setting [13], 85 to 94%; under setting [14], 0 to 29%; under setting [15], 0 to 29%.

For the compound `COC(=O)c1nc(-c2ccc(C(F)(F)F)c([S+](C)[O-])c2Cl)ccc1Cl` (stereo not drawn) [F119, methyl 3-chloro-6-(2-chloro-3-(methylsulfinyl)-4-(trifluoromethyl)phenyl)picolinate], the pest or weed control at 140 g/ha by setting is: under setting [1], 0 to 29%; under setting [2], 0 to 29%; under setting [3], 0 to 29%; under setting [4], 0 to 29%; under setting [5], 0 to 29%; under setting [6], 0 to 29%. Moreover, the pest or weed control at 140 g/ha is, setting by setting: under setting [7], 0 to 29%; under setting [8], 0 to 29%; under setting [9], 0 to 29%; under setting [10], 0 to 29%; under setting [11], 0 to 29%; under setting [12], 0 to 29%. The pest or weed control at 140 g/ha under setting [13] lay in the range of 0 to 29%, the pest or weed control at 140 g/ha under setting [14] lay within 0 to 29% and the pest or weed control at 140 g/ha under setting [15] was 0 to 29%.

As for `COC(=O)c1nc(-c2c(Cl)cc(C(F)(F)F)cc2[S+](C)[O-])ccc1Cl` (stereo not drawn) [F120, methyl 3-chloro-6-(2-chloro-6-(methylsulfinyl)-4-(trifluoromethyl)phenyl)picolinate], the pest or weed control at 140 g/ha is 0 to 29% under setting [1]; 45 to 59% under setting [2]; 0 to 29% under setting [3]; 30 to 44% under setting [4]; 60 to 74% under setting [5]; 0 to 29% under setting [6]. The pest or weed control at 140 g/ha reads like this: under setting [7], 0 to 29%; under setting [8], 0 to 29%; under setting [9], 30 to 44%; under setting [10], 60 to 74%; under setting [11], 0 to 29%; under setting [12], 0 to 29%. In addition, the pest or weed control at 140 g/ha by setting is: under setting [13], 0 to 29%; under setting [14], 0 to 29%; under setting [15], 0 to 29%.

`COC(=O)c1nc(-c2ccc(C(F)(F)F)c(SC)c2Cl)ccc1Cl` [F121, methyl 3-chloro-6-(2-chloro-3-(methylthio)-4-(trifluoromethyl)phenyl)picolinate]: the pest or weed control at 140 g/ha by setting is: under setting [1], 0 to 29%; under setting [2], 30 to 44%; under setting [3], 0 to 29%; under setting [4], 0 to 29%; under setting [5], 0 to 29%; under setting [6], 0 to 29%. For the same compound, the pest or weed control at 140 g/ha by setting is: under setting [7], 0 to 29%; under setting [8], 0 to 29%; under setting [9], 0 to 29%; under setting [10], 0 to 29%; under setting [11], 0 to 29%; under setting [12], 0 to 29%. The pest or weed control at 140 g/ha is 0 to 29% under setting [13], 0 to 29% under setting [14] and 0 to 29% under setting [15].

Consider `COC(=O)c1nc(-c2c(Cl)cc(C(F)(F)F)cc2SC)ccc1Cl` [F122, methyl 3-chloro-6-(2-chloro-6-(methylthio)-4-(trifluoromethyl)phenyl)picolinate], for which the pest or weed control at 140 g/ha reads like this: under setting [1], 0 to 29%; under setting [2], 95 to 100%; under setting [3], 0 to 29%; under setting [4], 60 to 74%; under setting [5], 60 to 74%; under setting [6], 0 to 29%. For the same compound, the pest or weed control at 140 g/ha runs as follows: under setting [7], 30 to 44%; under setting [8], 45 to 59%; under setting [9], 95 to 100%; under setting [10], 75 to 84%; under setting [11], 0 to 29%; under setting [12], 85 to 94%. Moreover, the pest or weed control at 140 g/ha under setting [13] was in the range of 75 to 84%, the pest or weed control at 140 g/ha under setting [14] lay within 0 to 29% and the pest or weed control at 140 g/ha under setting [15] lay within 0 to 29%.

As to `COC(=O)c1nc(-c2ccc(Oc3ccc(F)cc3)cc2Cl)ccc1Cl` [F123, Methyl 3-chloro-6-(2-chloro-4-(4-fluorophe)phenyl) picolinate], the pest or weed control at 140 g/ha was 0 to 29% under setting [1]; 0 to 29% under setting [2]; 0 to 29% under setting [3]; 0 to 29% under setting [4]; 0 to 29% under setting [5]; 0 to 29% under setting [6]. Further, the pest or weed control at 140 g/ha is, setting by setting: under setting [7], 0 to 29%; under setting [8], 0 to 29%; under setting [9], 30 to 44%; under setting [10], 0 to 29%; under setting [11], 0 to 29%; under setting [12], 0 to 29%. Further, the pest or weed control at 140 g/ha was in the range of 0 to 29% under setting [13], 0 to 29% under setting [14] and 0 to 29% under setting [15].

For the compound `COC(=O)c1nc(-c2cc3c(cc2Cl)OC(F)(F)O3)ccc1Cl` [F124, Methyl 3-chloro-6-(6-chloro-2,2-difluorobenzo[d] [1,3]dioxol-5-yl)picolinate], the pest or weed control at 140 g/ha by setting is: under setting [1], 45 to 59%; under setting [2], 75 to 84%; under setting [3], 30 to 44%; under setting [4], 85 to 94%; under setting [5], 75 to 84%; under setting [6], 0 to 29%. Moreover, the pest or weed control at 140 g/ha by setting is: under setting [7], 85 to 94%; under setting [8], 75 to 84%; under setting [9], 95 to 100%; under setting [10], 45 to 59%; under setting [11], 0 to 29%; under setting [12], 30 to 44%. Besides, the pest or weed control at 140 g/ha reads like this: under setting [13], 75 to 84%; under setting [14], 0 to 29%; under setting [15], 60 to 74%.

Regarding `COC(=O)c1nc(-c2ccc(C#N)c(Cl)c2)ccc1Cl` [F125, Methyl 3-chloro-6-(3-chloro-4-cyanophenyl) picolinate], the pest or weed control at 140 g/ha is 0 to 29% under setting [1]; 0 to 29% under setting [2]; 0 to 29% under setting [3]; 45 to 59% under setting [4]; 0 to 29% under setting [5]; 0 to 29% under setting [6]. Moreover, the pest or weed control at 140 g/ha fell in the range of 0 to 29% under setting [7]; 0 to 29% under setting [8]; 30 to 44% under setting [9]; 0 to 29% under setting [10]; 0 to 29% under setting [11]; 0 to 29% under setting [12]. In addition, the pest or weed control at 140 g/ha runs as follows: under setting [13], 0 to 29%; under setting [14], 0 to 29%; under setting [15], 0 to 29%.
